What was measured:
MAP4K5 = target: T1, MAP4K5 (Homo sapiens, UniProt Q9Y4K4); assay: Quantitative competitive binding assay (KINOMEscan)
T1 construct: purchased KINOMEscan (DiscoveRx), San Diego, CA

MAP4K2 = target: T2, MAP4K2 (Homo sapiens, UniProt Q12851); assay: as above
T2 construct: purchased KINOMEscan (DiscoveRx), San Diego, CA
T2 sequence (Q12851 1-820): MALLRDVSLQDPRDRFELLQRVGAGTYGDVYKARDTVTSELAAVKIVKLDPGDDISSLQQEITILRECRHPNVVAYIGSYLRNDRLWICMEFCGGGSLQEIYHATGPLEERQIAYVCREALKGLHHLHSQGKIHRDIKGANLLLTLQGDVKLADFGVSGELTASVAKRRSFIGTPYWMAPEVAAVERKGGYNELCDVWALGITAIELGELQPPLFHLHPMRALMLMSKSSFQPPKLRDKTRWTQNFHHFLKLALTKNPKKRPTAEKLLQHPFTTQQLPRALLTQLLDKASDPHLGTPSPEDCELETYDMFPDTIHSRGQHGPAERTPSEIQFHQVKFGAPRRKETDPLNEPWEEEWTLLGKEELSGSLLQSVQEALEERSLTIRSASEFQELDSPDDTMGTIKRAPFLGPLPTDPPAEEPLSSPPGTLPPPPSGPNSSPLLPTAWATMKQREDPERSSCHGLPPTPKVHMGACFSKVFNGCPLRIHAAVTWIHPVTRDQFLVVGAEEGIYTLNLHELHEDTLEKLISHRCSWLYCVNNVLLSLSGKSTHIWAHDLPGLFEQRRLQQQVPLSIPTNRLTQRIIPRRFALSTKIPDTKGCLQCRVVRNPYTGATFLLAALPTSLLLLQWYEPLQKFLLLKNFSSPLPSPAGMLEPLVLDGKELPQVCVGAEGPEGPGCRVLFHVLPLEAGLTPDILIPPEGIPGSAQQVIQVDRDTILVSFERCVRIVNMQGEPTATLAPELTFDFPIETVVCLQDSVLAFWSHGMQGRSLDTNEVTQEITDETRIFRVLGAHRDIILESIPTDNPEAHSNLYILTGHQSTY

NOXA = assay: Western blot, UV-induced NOXA expression; format: cell-based, human; settings: NHEK, 1 μM
MAP3K1 = target: T3, MAP3K1 (Homo sapiens, UniProt Q13233); assay: Quantitative competitive binding assay (KINOMEscan)
T3 construct: purchased KINOMEscan (DiscoveRx), San Diego, CA

RIPK1 = target: T4, RIPK1 (Homo sapiens, UniProt Q13546); assay: as above
T4 construct: purchased KINOMEscan (DiscoveRx), San Diego, CA

MKK7 (MAP2K7) = target: T5, MKK7 (MAP2K7) (Homo sapiens, UniProt O14733); assay: as above
T5 construct: purchased KINOMEscan (DiscoveRx), San Diego, CA
T5 sequence (O14733 1-419): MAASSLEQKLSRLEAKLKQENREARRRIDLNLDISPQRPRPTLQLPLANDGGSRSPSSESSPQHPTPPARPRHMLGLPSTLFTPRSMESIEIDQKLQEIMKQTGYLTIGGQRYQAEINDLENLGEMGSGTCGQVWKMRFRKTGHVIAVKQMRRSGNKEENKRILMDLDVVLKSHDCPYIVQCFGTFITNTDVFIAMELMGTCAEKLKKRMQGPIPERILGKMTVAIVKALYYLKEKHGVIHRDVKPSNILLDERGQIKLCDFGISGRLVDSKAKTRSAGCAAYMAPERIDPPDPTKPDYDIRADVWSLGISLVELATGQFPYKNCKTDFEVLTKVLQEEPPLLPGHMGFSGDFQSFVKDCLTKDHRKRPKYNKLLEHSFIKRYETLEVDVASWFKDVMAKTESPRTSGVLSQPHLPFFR

BRK (PTK6) = BRK (PTK6) (Homo sapiens, UniProt Q13882); assay: as above
PAK1 = target: T6, PAK1 (Homo sapiens, UniProt Q13153); assay: as above
T6 construct: purchased KINOMEscan (DiscoveRx), San Diego, CA

SRMS = SRMS (Homo sapiens, UniProt Q9H3Y6); assay: as above
MINK (MINK1) = target: T7, MINK (MINK1) (Homo sapiens, UniProt Q8N4C8); assay: as above
T7 construct: purchased KINOMEscan (DiscoveRx), San Diego, CA

MLK2 (MAP3K10) = target: T8, MLK2 (MAP3K10) (Homo sapiens, UniProt Q02779); assay: as above
T8 construct: purchased KINOMEscan (DiscoveRx), San Diego, CA

BLK = target: T9, BLK (Homo sapiens, UniProt P51451); assay: as above
T9 construct: purchased KINOMEscan (DiscoveRx), San Diego, CA

MAP3K3 = target: T10, MAP3K3 (Homo sapiens, UniProt Q99759); assay: as above
T10 construct: purchased KINOMEscan (DiscoveRx), San Diego, CA

MAP3K4 = target: T11, MAP3K4 (Homo sapiens, UniProt Q9Y6R4); assay: as above
T11 construct: purchased KINOMEscan (DiscoveRx), San Diego, CA

MLK1 (MAP3K9) = target: T12, MLK1 (MAP3K9) (Homo sapiens, UniProt P80192); assay: as above
T12 construct: purchased KINOMEscan (DiscoveRx), San Diego, CA

[1] = estimated Kd, averaged pointwise estimates, transformed Hill equation, read-out: Calculated estimate of IC50
[2] = read-out: Percent control (50 nM)
[3] = read-out: Percent control (200 nM)
[4] = read-out: Percent control (1000 nM)
[5] = read-out: Percent control (10 μM)

T9 sequence (P51451 whole entry): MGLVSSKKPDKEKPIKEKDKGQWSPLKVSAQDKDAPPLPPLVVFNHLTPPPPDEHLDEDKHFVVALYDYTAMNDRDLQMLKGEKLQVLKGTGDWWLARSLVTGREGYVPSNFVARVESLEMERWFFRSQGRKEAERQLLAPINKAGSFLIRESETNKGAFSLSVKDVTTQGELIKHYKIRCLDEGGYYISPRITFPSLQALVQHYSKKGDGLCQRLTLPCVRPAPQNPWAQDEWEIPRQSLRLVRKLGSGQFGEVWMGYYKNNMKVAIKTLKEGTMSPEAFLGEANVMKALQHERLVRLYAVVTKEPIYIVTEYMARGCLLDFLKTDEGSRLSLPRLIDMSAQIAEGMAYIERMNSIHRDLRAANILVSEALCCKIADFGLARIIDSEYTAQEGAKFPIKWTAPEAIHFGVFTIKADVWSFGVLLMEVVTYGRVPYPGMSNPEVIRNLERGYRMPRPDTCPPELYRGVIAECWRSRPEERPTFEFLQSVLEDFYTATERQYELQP
T4 sequence (Q13546 whole entry): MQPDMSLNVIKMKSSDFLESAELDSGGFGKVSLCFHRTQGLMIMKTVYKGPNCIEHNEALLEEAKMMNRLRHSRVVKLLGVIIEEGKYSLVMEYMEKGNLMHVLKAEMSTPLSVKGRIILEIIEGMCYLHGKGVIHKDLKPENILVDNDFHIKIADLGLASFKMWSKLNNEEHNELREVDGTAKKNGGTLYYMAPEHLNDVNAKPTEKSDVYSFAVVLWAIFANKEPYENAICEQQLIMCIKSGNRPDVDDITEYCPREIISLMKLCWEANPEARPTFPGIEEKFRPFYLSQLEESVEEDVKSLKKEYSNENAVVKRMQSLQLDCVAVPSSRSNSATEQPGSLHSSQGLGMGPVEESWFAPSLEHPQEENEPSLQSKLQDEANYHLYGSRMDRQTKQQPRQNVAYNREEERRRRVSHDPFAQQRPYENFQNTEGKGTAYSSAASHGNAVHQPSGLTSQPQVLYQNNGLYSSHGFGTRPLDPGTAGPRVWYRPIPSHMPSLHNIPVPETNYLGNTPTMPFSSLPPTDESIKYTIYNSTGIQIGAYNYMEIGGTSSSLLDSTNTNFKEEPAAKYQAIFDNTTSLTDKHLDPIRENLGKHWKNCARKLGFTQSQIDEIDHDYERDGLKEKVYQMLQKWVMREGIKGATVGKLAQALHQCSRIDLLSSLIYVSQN
Sequence of BRK (PTK6) (Q13882 whole entry): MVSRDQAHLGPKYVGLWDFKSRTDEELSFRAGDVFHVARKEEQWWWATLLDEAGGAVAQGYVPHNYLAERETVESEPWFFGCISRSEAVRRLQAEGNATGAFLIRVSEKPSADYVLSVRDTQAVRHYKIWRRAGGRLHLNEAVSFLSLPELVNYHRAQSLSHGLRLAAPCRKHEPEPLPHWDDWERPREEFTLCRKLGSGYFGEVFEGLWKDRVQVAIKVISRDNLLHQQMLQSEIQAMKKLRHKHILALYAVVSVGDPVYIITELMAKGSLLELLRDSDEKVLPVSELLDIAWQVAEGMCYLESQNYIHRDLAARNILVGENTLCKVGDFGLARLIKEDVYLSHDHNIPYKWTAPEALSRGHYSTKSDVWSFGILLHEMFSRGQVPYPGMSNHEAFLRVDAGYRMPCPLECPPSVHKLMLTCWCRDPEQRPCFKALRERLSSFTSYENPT
T6 sequence (Q13153 whole entry): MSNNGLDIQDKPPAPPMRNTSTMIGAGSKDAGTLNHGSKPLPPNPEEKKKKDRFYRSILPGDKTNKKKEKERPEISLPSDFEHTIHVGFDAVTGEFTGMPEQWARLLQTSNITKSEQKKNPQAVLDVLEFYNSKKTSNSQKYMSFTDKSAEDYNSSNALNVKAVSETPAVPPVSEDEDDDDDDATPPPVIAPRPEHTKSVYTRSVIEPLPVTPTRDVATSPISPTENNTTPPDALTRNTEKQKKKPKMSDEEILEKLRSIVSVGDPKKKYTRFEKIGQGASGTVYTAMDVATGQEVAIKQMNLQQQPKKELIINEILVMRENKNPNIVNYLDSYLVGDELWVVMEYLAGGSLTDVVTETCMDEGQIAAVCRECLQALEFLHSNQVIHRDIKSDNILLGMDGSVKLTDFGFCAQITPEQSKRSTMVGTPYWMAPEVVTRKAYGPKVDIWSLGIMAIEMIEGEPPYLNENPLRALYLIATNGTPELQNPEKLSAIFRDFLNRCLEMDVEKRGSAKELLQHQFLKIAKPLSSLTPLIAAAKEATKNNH
T7 sequence (Q8N4C8 whole entry): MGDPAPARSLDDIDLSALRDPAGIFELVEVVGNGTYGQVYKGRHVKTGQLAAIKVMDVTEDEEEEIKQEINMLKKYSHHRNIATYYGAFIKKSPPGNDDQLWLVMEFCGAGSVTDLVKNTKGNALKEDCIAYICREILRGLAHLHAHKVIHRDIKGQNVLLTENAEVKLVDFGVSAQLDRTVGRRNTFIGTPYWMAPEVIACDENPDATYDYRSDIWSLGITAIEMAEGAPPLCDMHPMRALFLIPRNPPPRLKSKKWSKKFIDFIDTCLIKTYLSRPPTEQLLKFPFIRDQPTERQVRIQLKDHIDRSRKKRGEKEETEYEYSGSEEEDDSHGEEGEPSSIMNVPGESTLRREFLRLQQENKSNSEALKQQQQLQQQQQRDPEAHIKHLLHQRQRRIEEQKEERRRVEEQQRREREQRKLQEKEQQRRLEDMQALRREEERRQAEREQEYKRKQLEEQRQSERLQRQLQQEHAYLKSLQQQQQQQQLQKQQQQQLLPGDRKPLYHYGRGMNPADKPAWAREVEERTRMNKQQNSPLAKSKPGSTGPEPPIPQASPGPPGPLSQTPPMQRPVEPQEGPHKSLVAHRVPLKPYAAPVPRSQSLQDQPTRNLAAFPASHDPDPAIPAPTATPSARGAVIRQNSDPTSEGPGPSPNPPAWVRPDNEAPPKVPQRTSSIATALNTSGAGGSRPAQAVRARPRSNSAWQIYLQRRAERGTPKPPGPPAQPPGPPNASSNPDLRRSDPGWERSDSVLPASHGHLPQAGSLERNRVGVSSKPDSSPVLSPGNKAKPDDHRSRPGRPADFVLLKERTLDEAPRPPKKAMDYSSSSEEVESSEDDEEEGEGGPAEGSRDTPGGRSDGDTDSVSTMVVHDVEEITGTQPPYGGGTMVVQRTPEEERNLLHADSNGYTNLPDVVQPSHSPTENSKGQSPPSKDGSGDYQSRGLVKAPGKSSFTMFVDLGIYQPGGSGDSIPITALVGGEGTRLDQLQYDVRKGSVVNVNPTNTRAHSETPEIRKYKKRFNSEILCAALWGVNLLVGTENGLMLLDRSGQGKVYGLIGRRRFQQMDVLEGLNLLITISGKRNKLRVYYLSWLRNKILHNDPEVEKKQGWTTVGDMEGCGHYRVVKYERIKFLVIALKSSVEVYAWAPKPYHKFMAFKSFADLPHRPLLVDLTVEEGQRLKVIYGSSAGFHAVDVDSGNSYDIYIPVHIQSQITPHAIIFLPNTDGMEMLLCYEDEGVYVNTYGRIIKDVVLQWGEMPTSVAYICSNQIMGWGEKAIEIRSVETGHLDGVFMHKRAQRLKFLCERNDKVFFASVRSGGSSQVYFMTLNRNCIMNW
T3 sequence (Q13233 whole entry): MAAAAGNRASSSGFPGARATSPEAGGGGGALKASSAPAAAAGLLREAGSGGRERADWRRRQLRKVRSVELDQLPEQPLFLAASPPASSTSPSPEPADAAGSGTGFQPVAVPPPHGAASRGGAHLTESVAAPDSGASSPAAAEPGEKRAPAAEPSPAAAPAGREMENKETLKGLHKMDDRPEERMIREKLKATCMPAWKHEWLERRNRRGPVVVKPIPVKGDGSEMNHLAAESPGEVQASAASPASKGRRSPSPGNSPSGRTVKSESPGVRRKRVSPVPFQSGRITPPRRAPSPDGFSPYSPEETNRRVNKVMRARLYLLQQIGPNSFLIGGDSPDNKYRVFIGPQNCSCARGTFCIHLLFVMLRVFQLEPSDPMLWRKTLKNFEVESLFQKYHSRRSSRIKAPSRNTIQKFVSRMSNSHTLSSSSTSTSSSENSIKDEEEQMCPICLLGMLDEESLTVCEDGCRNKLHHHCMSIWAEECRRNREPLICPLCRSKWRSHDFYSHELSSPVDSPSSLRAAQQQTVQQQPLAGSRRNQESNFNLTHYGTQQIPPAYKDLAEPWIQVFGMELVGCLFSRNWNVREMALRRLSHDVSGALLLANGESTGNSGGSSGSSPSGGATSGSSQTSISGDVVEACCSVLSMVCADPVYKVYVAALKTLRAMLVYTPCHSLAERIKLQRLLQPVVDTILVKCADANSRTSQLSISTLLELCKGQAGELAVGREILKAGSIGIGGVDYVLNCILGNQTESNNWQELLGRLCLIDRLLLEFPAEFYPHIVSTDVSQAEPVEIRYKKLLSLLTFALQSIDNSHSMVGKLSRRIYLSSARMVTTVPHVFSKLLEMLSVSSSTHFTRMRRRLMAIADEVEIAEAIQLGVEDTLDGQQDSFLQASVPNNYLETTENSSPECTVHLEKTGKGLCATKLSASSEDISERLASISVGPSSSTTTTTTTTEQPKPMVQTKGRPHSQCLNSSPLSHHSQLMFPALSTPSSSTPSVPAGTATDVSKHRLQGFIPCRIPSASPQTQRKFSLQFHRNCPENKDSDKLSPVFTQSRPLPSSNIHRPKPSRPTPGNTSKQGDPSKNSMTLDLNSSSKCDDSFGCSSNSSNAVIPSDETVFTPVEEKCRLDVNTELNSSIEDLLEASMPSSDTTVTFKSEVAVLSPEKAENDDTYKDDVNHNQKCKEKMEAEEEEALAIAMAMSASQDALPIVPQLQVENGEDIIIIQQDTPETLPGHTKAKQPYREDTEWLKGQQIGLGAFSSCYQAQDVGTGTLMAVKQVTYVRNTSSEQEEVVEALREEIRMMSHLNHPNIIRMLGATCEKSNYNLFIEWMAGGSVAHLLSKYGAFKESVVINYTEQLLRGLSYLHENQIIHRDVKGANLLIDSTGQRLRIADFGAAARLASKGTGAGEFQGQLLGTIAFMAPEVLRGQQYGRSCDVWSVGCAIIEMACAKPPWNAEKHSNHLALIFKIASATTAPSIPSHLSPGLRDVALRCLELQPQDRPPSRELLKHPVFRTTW

`CCCS(=O)(=O)Nc1ccc(F)c(C(=O)c2c[nH]c3ncc(-c4ccc(Cl)cc4)cc23)c1F` [vemurafenib] gave an IC50 (MAP4K5; [1]) of 58.2 nM, a remaining binding at 0.05 µM (MAP4K5; [2]) of 62% and a remaining binding at 0.2 µM (MAP4K5; [3]) of 33%. For the same molecule, the remaining binding at 1 µM (MAP4K5; [4]) was 4.1%, the remaining binding at 10 µM (MAP4K5; [5]) was 0.1% and the remaining binding at 0.05 µM (MAP4K2; [2]) was 99%. For the same molecule, the remaining binding at 0.2 µM (MAP4K2; [3]) was 82%, the remaining binding at 1 µM (MAP4K2; [4]) was 95% and the remaining binding at 10 µM (MAP4K2; [5]) was 46%. For the same molecule, the “NOXA induction at 24 hr post-UV irradiation” value (NOXA) was “diminished”, the remaining binding at 0.05 µM (MAP3K1; [2]) was 98% and the remaining binding at 0.2 µM (MAP3K1; [3]) was 84%. For the same molecule, the remaining binding at 1 µM (MAP3K1; [4]) was 89%, the remaining binding at 10 µM (MAP3K1; [5]) was 81% and the remaining binding at 0.05 µM (RIPK1; [2]) was 92%. It also gave a remaining binding at 0.2 µM (RIPK1; [3]) of 100%, a remaining binding at 1 µM (RIPK1; [4]) of 99% and a remaining binding at 10 µM (RIPK1; [5]) of 73%. It also gave a remaining binding at 0.05 µM (MKK7 (MAP2K7); [2]) of 97%, a remaining binding at 0.2 µM (MKK7 (MAP2K7); [3]) of 95% and a remaining binding at 1 µM (MKK7 (MAP2K7); [4]) of 94%. It also gave a remaining binding at 10 µM (MKK7 (MAP2K7); [5]) of 85%, an IC50 (BRK (PTK6); [1]) of 68 nM and a remaining binding at 0.05 µM (BRK (PTK6); [2]) of 63%. It also gave a remaining binding at 0.2 µM (BRK (PTK6); [3]) of 28%, a remaining binding at 1 µM (BRK (PTK6); [4]) of 6.9% and a remaining binding at 10 µM (BRK (PTK6); [5]) of 0.35%. It also gave a remaining binding at 0.05 µM (PAK1; [2]) of 99%, a remaining binding at 0.2 µM (PAK1; [3]) of 98% and a remaining binding at 1 µM (PAK1; [4]) of 91%. It also gave a remaining binding at 10 µM (PAK1; [5]) of 46%, an IC50 (SRMS; [1]) of 11.1 nM and a remaining binding at 0.05 µM (SRMS; [2]) of 24%. It also gave a remaining binding at 0.2 µM (SRMS; [3]) of 9.6%, a remaining binding at 1 µM (SRMS; [4]) of 0.75% and a remaining binding at 10 µM (SRMS; [5]) of 0%. It also gave an IC50 (MINK (MINK1); [1]) of 14800 nM, a remaining binding at 0.05 µM (MINK (MINK1); [2]) of 100% and a remaining binding at 0.2 µM (MINK (MINK1); [3]) of 100%. It also gave a remaining binding at 1 µM (MINK (MINK1); [4]) of 91%, a remaining binding at 10 µM (MINK (MINK1); [5]) of 66% and a remaining binding at 0.05 µM (MLK2 (MAP3K10); [2]) of 92%. The remaining binding at 0.2 µM (MLK2 (MAP3K10); [3]) was 96%, the remaining binding at 10 µM (MLK2 (MAP3K10); [5]) was 78% and the IC50 (BLK; [1]) was 518 nM. It also gave a remaining binding at 0.05 µM (BLK; [2]) of 96%, a remaining binding at 0.2 µM (BLK; [3]) of 66% and a remaining binding at 1 µM (BLK; [4]) of 30%. For the same molecule, the remaining binding at 10 µM (BLK; [5]) was 0.55%, the remaining binding at 0.05 µM (MAP3K3; [2]) was 87% and the remaining binding at 0.2 µM (MAP3K3; [3]) was 97%. It also gave a remaining binding at 1 µM (MAP3K3; [4]) of 100%, a remaining binding at 10 µM (MAP3K3; [5]) of 94% and a remaining binding at 0.05 µM (MAP3K4; [2]) of 95%. It also gave a remaining binding at 0.2 µM (MAP3K4; [3]) of 92%, a remaining binding at 1 µM (MAP3K4; [4]) of 87% and a remaining binding at 10 µM (MAP3K4; [5]) of 46%. It also gave an IC50 (MLK1 (MAP3K9); [1]) of 14000 nM, a remaining binding at 0.05 µM (MLK1 (MAP3K9); [2]) of 100% and a remaining binding at 0.2 µM (MLK1 (MAP3K9); [3]) of 93%. For the same molecule, the remaining binding at 1 µM (MLK1 (MAP3K9); [4]) was 97% and the remaining binding at 10 µM (MLK1 (MAP3K9); [5]) was 41%.

From paper PMC3814616, “BRAF inhibitors suppress apoptosis through off-target inhibition of JNK signaling” (eLife, 2013)
